US6147097A, “Imidazole derivatives as anti-HIV agents” (Shionogi & Co., Ltd., priority 1994, dated 2000)
Values after ≈ are worked out from the molar mass of the structure shown. Like-named read-outs stand apart in the source and are kept apart here.

Tests used:
[1] = molecular target: T1, purified recombinant HIV-1 reverse transcriptase (Human immunodeficiency virus type 1 group M subtype B, UniProt P04585); test: reverse transcriptase inhibition, poly(rA)/(dT) template primer, [3H]dTTP uptake; assay type: biochemical
T1 construct: purified recombinant HIV-1 reverse transcriptase; made in house; host or cells: Escherichia coli
Summary of the method: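 Inhibition reported as percent reduction of [3H]dTTP incorporation relative to solvent control, after 1 h at 37 °C at pH 8.3. Recombinant RT from E. coli, poly(rA) template with oligo(dT) primer, 4 μM unlabeled dTTP as substrate; product collected on DEAE filter mats.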

HIV (HTLV-IIIB strain) = test: microbe, parasite or virus in culture; assay type: cell-based; conditions: Human immunodeficiency virus 1, IIIB, MT4, 120 h
Summary of the method: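 Protection from virus was read as viable-cell MTT conversion to formazan after 5 days at 37° C. The cultures contained MT-4 cells (3.5×10^4/well), compound dilutions and 60 pfu HIV per well.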

[2] = cytotoxicity in MT-4 cells (MTT, culture medium in place of HIV); assay type: cell-based; conditions: human
Summary of the method: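 Uninfected readout: compound-treated MT-4 cultures, 3.5×10^4 cells/well, received medium in place of virus and were kept 5 days at 37° C. Viability measured by 1 h MTT reduction, solubilized formazan read at 560/690 nm relative to control wells.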

[3] = MT-4 cells, 60 pfu HIV per well, 37° C., 5 days, MTT, Tables 1 and 2, read-out: EC50
[4] = MT-4 cells, no virus, 37° C., 5 days, MTT, Table 3, read-out: CC50

Structure (SMILES)	IC50 [1] [nM]	EC50 (HIV (HTLV-IIIB strain); [3]) [µg/mL]	CC50 at 120 h [2, 4] [µg/mL]	CC50 at 120 h ([2]; mt-4 cells) [µg/mL]	EC50 (HIV (HTLV-IIIB strain)) [µg/mL]	IC50 ([1]; read-out: RT IC50, pH 8.3, 37° C., 1 hour, Tables 5 and 6) [nM]
CC(C)c1nc(CO)n(C(C)C)c1Sc1cc(Cl)cc(Cl)c1 [Compound I-27, [5-(3,5-dichlorophenylthio)-1,4-diisopropyl-1H-imidazol-2-yl]methanol]	3340	0.03 (≈ 0.0835 µM)	10 to 100 (≈ 27.8 to 278 µM)	–	–	–
CCn1c(CO)nc(C(C)C)c1Sc1cccc(Cl)c1 [Compound I-28, [1-ethyl-5-(3-chlorophenylthio)-4-isopropyl-1H-imidazol-2-yl]methanol]	643	0.002 to 0.004 (≈ 0.00643 to 0.0129 µM)	12.5 (≈ 40.2 µM)	–	–	–
CCCn1c(CO)nc(C(C)C)c1Sc1cccc(Cl)c1 [Compound I-29, [5-(3-chlorophenylthio)-4-isopropyl-1-n-propyl-1H-imidazol-2-yl]methanol]	1850	0.016 to 0.03 (≈ 0.0492 to 0.0923 µM)	12.5 (≈ 38.5 µM)	–	–	–
CC(C)c1nc(CO)n(CC2CC2)c1Sc1cc(Cl)cc(Cl)c1 [Compound I-30, [1-cyclopropylmethyl-5-(3,5-dichlorophenylthio)-4-isopropyl-1H-imidazol-2-yl]methanol]	2450	0.005 to 0.01 (≈ 0.0135 to 0.0269 µM)	10 to 100 (≈ 26.9 to 269 µM)	–	–	–
CC(=O)Cn1c(CO)nc(C(C)C)c1Sc1cc(Cl)cc(Cl)c1 [Compound I-32]	7230	0.06 (≈ 0.161 µM)	10 to 100 (≈ 26.8 to 268 µM)	–	–	–
CC(C)c1nc(CO)n(CC(F)(F)F)c1Sc1cc(Cl)cc(Cl)c1 [Compound I-33, 2-[5-(3,5-dichlorophenylthio)-4-isopropyl-1-(1,1,1-trifluoroethyl)-1H-imidazol-2-yl]methanol]	9770	0.016 (≈ 0.0401 µM)	10 to 100 (≈ 25 to 250 µM)	–	–	–
CC(C)c1nc(CO)n(CF)c1Sc1cc(Cl)cc(Cl)c1 [Compound I-34, [1-fluoromethyl-5-(3,5-dichlorophenylthio)-4-isopropyl-1H-imidazol-2-yl]methanol]	4010	0.006 (≈ 0.0172 µM)	–	13.5 (≈ 38.7 µM)	–	–
CCn1c(CO)nc(C(C)C)c1Sc1cc(F)cc(F)c1 [Compound I-36, [5-(3,5-difluorophenylthio)-1-ethyl-4-isopropyl-1H-imidazol-2-yl]methanol]	576	–	10 to 100 (≈ 32 to 320 µM)	–	0.002 (≈ 0.0064 µM)	–
CCn1c(CO)nc(C(C)C)c1Sc1cccc(F)c1 [Compound I-37, [1-ethyl-5-(3-fluorophenylthio)-4-isopropyl-1H-imidazol-2-yl]methanol]	204	0.0005 (≈ 0.0017 µM)	25 (≈ 84.9 µM)	–	–	–
CC(C)c1c(Sc2cccc(Cl)c2)nc(CO)n1C [Compound I-38, [4-(3-chlorophenylthio)-5-isopropyl-1-methyl-1H-imidazol-2-yl]methanol]	273000	6.3 (≈ 21.2 µM)	12.5 to 25 (≈ 42.1 to 84.2 µM)	–	–	–
CC(C)c1c(Sc2cc(Cl)cc(Cl)c2)nc(CO)n1C [Compound I-39, [4-(3,5-dichlorophenylthio)-5-isopropyl-1-methyl-1H-imidazol-2-yl]methanol]	198000	1 to 10 (≈ 3.02 to 30.2 µM)	10 to 100 (≈ 30.2 to 302 µM)	–	–	–
CC(=O)OCc1nc(C(C)C)c(Sc2cc(Cl)cc(Cl)c2)n1C [Compound I-40, [5-(3,5-dichlorophenylthio)-4-isopropyl-1-methyl-1H-imidazol-2-yl]methyl acetate]	28700	0.016	12.5 to 25	–	–	–
CC(C)c1nc(COC(N)=O)n(C)c1Sc1cc(Cl)cc(Cl)c1 [Compound I-41, 2-carbamoyloxymethyl-5-(3,5-dichlorophenylthio)-4-isopropyl-1-methyl-1H-imidazole]	1340	–	–	8.5 (≈ 22.7 µM)	0.016 (≈ 0.0427 µM)	–
CC(C)c1nc(COC(N)=O)n(C)c1Sc1cccc(Cl)c1 [Compound I-42, 2-carbamoyloxymethyl-5-(3-chlorophenylthio)-4-isopropyl-1-methyl-1H-imidazole]	5000	–	–	8 (≈ 23.5 µM)	0.07 (≈ 0.206 µM)	–
CNC(=O)OCc1nc(C(C)C)c(Sc2cc(Cl)cc(Cl)c2)n1C [Compound I-43, 5-(3,5-dichlorophenylthio)-4-isopropyl-1-methyl-2-(N-methylcarbamoyl)oxymethyl-1H-imidazole]	13600	0.25 (≈ 0.644 µM)	1 to 10 (≈ 2.58 to 25.8 µM)	–	–	–
CNC(=S)OCc1nc(C(C)C)c(Sc2cc(Cl)cc(Cl)c2)n1C [Compound I-44, 5-(3,5-dichlorophenylthio)-4-isopropyl-1-methyl-2-(N-methylthiocarbamoyl)oxymethyl-1H-imidazole]	107000	1 (≈ 2.47 µM)	1 to 10 (≈ 2.47 to 24.7 µM)	–	–	–
CC(C)c1nc(COC(N)=O)n(Cc2ccccc2)c1Sc1cc(Cl)cc(Cl)c1 [Compound I-45, 1-benzyl-2-carbamoyloxymethyl-5-(3,5-dichlorophenylthio)-4-isopropyl-1H-imidazole]	1440	–	12.5 (≈ 27.8 µM)	–	0.004 to 0.008 (≈ 0.00888 to 0.0178 µM)	–
CC(C)c1nc(COC(N)=O)n(Cc2ccccc2)c1Sc1cccc([N+](=O)[O-])c1 [Compound I-47, 1-benzyl-2-carbamoyloxymethyl-4-isopropyl-5-(3-nitrophenylthio)-1H-imidazole]	2300	–	6.3 to 12.5 (≈ 14.8 to 29.3 µM)	–	0.002 (≈ 0.00469 µM)	–
C=CCn1c(COC(N)=O)nc(C(C)C)c1Sc1cccc([N+](=O)[O-])c1 [Compound I-48, 1-allyl-2-carbamoyloxymethyl-4-isopropyl-5-(3-nitrophenylthio)-1H-imidazole]	1200	0.016 (≈ 0.0425 µM)	25 to 50 (≈ 66.4 to 133 µM)	–	–	–
CCCn1c(COC(N)=O)nc(C(C)C)c1Sc1cc(Cl)cc(Cl)c1 [Compound I-51, 2-carbamoyloxymethyl-5-(3,5-dichlorophenylthio)-4-isopropyl-1-n-propyl-1H-imidazole]	944	0.003 to 0.005 (≈ 0.00746 to 0.0124 µM)	6.3 to 12.5 (≈ 15.7 to 31.1 µM)	–	–	–
CCn1c(COC(N)=O)nc(C(C)C)c1Sc1cc(Cl)cc(Cl)c1 [Compound I-52, 2-carbamoyloxymethyl-5-(3,5-dichlorophenylthio)-1-ethyl-4-isopropyl-1H-imidazole]	464	–	10 (≈ 25.8 µM)	–	0.003 (≈ 0.00773 µM)	–
CCn1c(COC(N)=O)nc(C(C)C)c1Sc1cccc(Cl)c1 [Compound I-53, 2-carbamoyloxymethyl-5-(3-chlorophenylthio)-1-ethyl-4-isopropyl-1H-imidazole]	593	–	10 to 100 (≈ 28.3 to 283 µM)	–	0.004 to 0.008 (≈ 0.0113 to 0.0226 µM)	–
CCCn1c(COC(N)=O)nc(C(C)C)c1Sc1cccc(Cl)c1 [Compound I-54, 2-carbamoyloxymethyl-5-(3-chlorophenylthio)-4-isopropyl-1-n-propyl-1H-imidazole]	1250	–	12.5 (≈ 34 µM)	–	0.004 (≈ 0.0109 µM)	–
CC(C)c1nc(COC(N)=O)n(CC(F)(F)F)c1Sc1cc(Cl)cc(Cl)c1 [Compound I-55, 2-carbamoyloxymethyl-5-(3,5-dichlorophenylthio)-4-isopropyl-1-(1,1,1-trifluoroethyl)-1H-imidazole]	5650	0.008 (≈ 0.0181 µM)	10 to 100 (≈ 22.6 to 226 µM)	–	–	–
CC(C)c1nc(COC(N)=O)n(CF)c1Sc1cc(Cl)cc(Cl)c1 [Compound I-56, 2-carbamoyloxymethyl-5-(3,5-dichlorophenylthio)-1-fluoromethyl-4-isopropyl-1H-imidazole]	2370	–	10 to 100 (≈ 25.5 to 255 µM)	–	0.008 (≈ 0.0204 µM)	–
CCn1c(COC(N)=O)nc(C(C)C)c1Sc1cccc(F)c1 [Compound I-57, 2-carbamoyloxymethyl-1-ethyl-5-(3-fluorophenylthio)-4-isopropylethyl-1H-imidazole]	–	–	25 to 50 (≈ 74.1 to 148 µM)	–	0.0005 to 0.001 (≈ 0.00148 to 0.00296 µM)	119
CCn1c(COC(N)=O)nc(C(C)C)c1Sc1cc(F)cc(F)c1 [Compound I-58, 2-carbamoyloxymethyl-5-(3,5-difluorophenylthio)-1-ethyl-4-isopropyl-1H-imidazole]	422	–	10 to 100 (≈ 28.1 to 281 µM)	–	0.002 (≈ 0.00563 µM)	–
CC(C)c1c(Sc2cccc(Cl)c2)nc(COC(N)=O)n1C [Compound I-59, 2-carbamoyloxymethyl-4-(3-chlorophenylthio)-5-isopropyl-1-methylimidazole]	> 294000	–	12.5 to 25 (≈ 36.8 to 73.6 µM)	–	12.5 (≈ 36.8 µM)	–
